Measurements taken from patent EP0673922A1, “Non-ionic iodinated dimers as X-ray contrast agents, process for their preparation and pharmaceutical compositions containing them” (CENTRO INVESTIGACION JUSTESA IMAGEN S.A., priority 1994, dated 1995).

Assays:
Solubility in water = assay type: physicochemical
[1] = Osmolality of aqueous solution; assay type: physicochemical
Experimental: (§1) Die Produkte der Erfindung der allgemeinen Formel I sind durch eine gute Löslichkeit in Wasser bei 20°C, eine Osmolalität in wässriger Lösung, die kleiner als die Osmolalität des Blutes (280 mOs/kg) ist, sowie durch eine niedrige allgemeine Toxizität gekennzeichnet, die als […] (LD₅₀) in Ratte bei intravenöser Gabe ausgedrückt wird.

[2] = Viscosity of aqueous solution; assay type: physicochemical
Ratte = test: General (acute) toxicity, LD50 after intravenous administration; assay type: in vivo; conditions: rat, intravenous administration (b7)
Experimental: as §1

Row | Structure (SMILES) | Löslichkeit in Wasser bei 20°C und 300 mg I/ml (Solubility in water) [%] | Osmolatität bei 37°C und 300 mg I/ml [1] [mOs/kg] | Viskosität bei 37°C und 300 mg I/ml [2] | LD₅₀ Ratte (Ratte) [g I/kg]
1 | CNC(=O)c1c(I)c(C(=O)NCC(O)CO)c(I)c(N(CCO)C(=O)C(O)C(=O)N(CCO)c2c(I)c(C(=O)NC)c(I)c(C(=O)NCC(O)CO)c2I)c1I (stereo not drawn) [Beispiel 1, N,N-Bis-(2-hydroxyethyl)-N,N'-bis-(3-[N-(2,3-dihydroxypropyl)carbamoyl]-5-(N-methylcarbamoyl)-2,4,6-triiodphenyl}hydroxymalonamid] | <60 | – | – | –
2 | NC(=O)c1c(I)c(C(=O)NCC(O)CO)c(I)c(N(CCO)C(=O)C(O)C(=O)N(CCO)c2c(I)c(C(N)=O)c(I)c(C(=O)NCC(O)CO)c2I)c1I (stereo not drawn) [Beispiel 8, N,N'-Bis-(2-hydroxyethyl)-N,N'-bis-{5-carbamoyl-3-[N-(2,3-dihydroxypropyl)carbamoyl]-2,4,6-triiodphenyl}-hydroxymalonamid] | <60 | – | – | –
3 | CN(C(=O)C(=O)C(=O)N(C)c1c(I)c(C(=O)NCC(O)CO)c(I)c(C(=O)NCC(O)CO)c1I)c1c(I)c(C(=O)NCC(O)CO)c(I)c(C(=O)NCC(O)CO)c1I (stereo not drawn) [Beispiel 13, N,N'-Dimethyl-N,N'-bis-{3,5-bis[N-(2,3-dihydroxypropyl)carbamoyl]-2,4,6-triiodphenyl}cetomalonamid] | >60 | 160 | 10,9 mPa·s | >15
4 | CC(=O)N(CC(O)CN(C(C)=O)c1c(I)c(C(=O)NCC(O)CO)c(I)c(C(=O)NCC(O)CO)c1I)c1c(I)c(C(=O)NCC(O)CO)c(I)c(C(=O)NCC(O)CO)c1I (stereo not drawn) [IODIXANOL, Iodixanol, reference compound] | >60 | 200 | 8,7 mPa·s | >15
5 | NC(=O)c1c(I)c(C(=O)NC(CO)C(O)CO)c(I)c(N(CCO)C(=O)C(O)C(=O)N(CCO)c2c(I)c(C(N)=O)c(I)c(C(=O)NC(CO)C(O)CO)c2I)c1I (stereo not drawn) [Beispiel 9, N,N'-Bis-(2-hydroxyethyl)-N,N'-bis-{5-carbamoyl-3-[N-(1-hydroxymethyl-2,3-dihydroxy-propyl)carbamoyl]-2,4,-6-triiodphenyl}hydroxymalonamid] | <60 | – | – | –
6 | CN(C(=O)C(O)C(=O)N(C)c1c(I)c(C(N)=O)c(I)c(C(=O)NC(CO)C(O)CO)c1I)c1c(I)c(C(N)=O)c(I)c(C(=O)NC(CO)C(O)CO)c1I (stereo not drawn) [Beispiel 6, N,N'-Dimethyl-N,N'-bis-{5-carbamoyl-3-[N-(1-hydroxymethyl-2,3-dihydroxypropyl)carbamoyl]-2,4,6-triiodphenyl}-hydroxymalonamid] | <60 | – | – | –
7 | O=C(NCCO)c1c(I)c(C(=O)NCC(O)CO)c(I)c(N(CCO)C(=O)CC(=O)N(CCO)c2c(I)c(C(=O)NCCO)c(I)c(C(=O)NCC(O)CO)c2I)c1I (stereo not drawn) [Beispiel 3, N,N'-Bis-(2-hydroxyethyl)-N,N'-bis-{3-[N-(2,3-dihydroxypropyl)-carbamoyl]-5-[N-(2-hydroxyethyl)carbamoyl]-2,4,6-triiodphenyl}-malonamid] | >60 | 160 | 7,5 mPa·s | >15
8 | CNC(=O)c1c(I)c(C(=O)NCC(O)CO)c(I)c(N(CC(O)CO)C(=O)C(O)C(=O)N(CC(O)CO)c2c(I)c(C(=O)NC)c(I)c(C(=O)NCC(O)CO)c2I)c1I (stereo not drawn) [Beispiel 2, N,N'-Bis-(2,3-dihydroxypropyl)-N,N'-bis-{3-[N-(2,3-dihydroxypropyl)carbamoyl]-5-(N-methylcarbamoyl)-2,4,6-triiodphenyl}-hydroxymalonamid] | <60 | – | – | –
9 | NC(=O)c1c(I)c(C(=O)NCC(O)CO)c(I)c(N(CC(O)CO)C(=O)C(O)C(=O)N(CC(O)CO)c2c(I)c(C(N)=O)c(I)c(C(=O)NCC(O)CO)c2I)c1I (stereo not drawn) [Beispiel 12, N,N'-Bis-(2,3-dihydroxypropyl)-N,N'-bis-{5-carbamoyl-3-[N-(2,3-dihydroxypropyl)carbamoyl]-2,4,6-triiodphenyl}-hydroxymalonamid] | >60 | 240 | 6,5 mPa·s | >15
10 | O=C(NCCO)c1c(I)c(C(=O)NCC(O)CO)c(I)c(N(CC(O)CO)C(=O)CC(=O)N(CC(O)CO)c2c(I)c(C(=O)NCCO)c(I)c(C(=O)NCC(O)CO)c2I)c1I (stereo not drawn) [Beispiel 4, N,N'-Bis-(2,3-hydroxypropyl)-N,N'-bis-{3-[N-(2,3-dihydroxypropyl)carbamoyl]-5-[N-(2-hydroxyethyl)carbamoyl]-2,4,6-triiodphenyl}malonamid] | >60 | 190 | 6,8 mPa·s | >15
11 | CN(C(=O)C(=O)C(=O)N(C)c1c(I)c(C(N)=O)c(I)c(C(=O)NCC(O)CO)c1I)c1c(I)c(C(N)=O)c(I)c(C(=O)NCC(O)CO)c1I (stereo not drawn) [Beispiel 14, N,N'-Dimethyl-N,N'-bis-{5-carbamoyl-3-[N-(2,3-dihydroxypropyl)carbamoyl]-2,4,6-triiodphenyl}cetomalonamid] | <60 | – | – | –
12 | O=C(NCCO)c1c(I)c(C(=O)NCC(O)CO)c(I)c(N(CCO)C(=O)C(O)C(=O)N(CCO)c2c(I)c(C(=O)NCCO)c(I)c(C(=O)NCC(O)CO)c2I)c1I (stereo not drawn) [Beispiel 10, N,N'-Bis-(2-hydroxyethyl)-N,N'-bis-{3-[N-(2,3-dihydroxypropyl)carbamoyl]-5-[N-(2-hydroxyethyl)carbamoyl]-2,4,6-triiodphenyl}hydroxymalonamid] | >60 | 170 | 7,3 mPa·s | >15
13 | O=C(NCCO)c1c(I)c(C(=O)NCC(O)CO)c(I)c(N(CC(O)CO)C(=O)C(O)C(=O)N(CC(O)CO)c2c(I)c(C(=O)NCCO)c(I)c(C(=O)NCC(O)CO)c2I)c1I (stereo not drawn) [Beispiel 11, N,N'-Bis-(2,3-dihydroxypropyl)-N,N'-bis-{3-[N-(2,3-dihydroxypropyl)carbamoyl]-5-[N-(2-hydroxyethyl)carbamoyl]-2,4,6-triiodphenyl}hydroxymalonamid] | >60 | 210 | 7,8 mPa·s | >15
14 | CN(C(=O)C(O)C(=O)N(C)c1c(I)c(C(N)=O)c(I)c(C(=O)NCC(O)CO)c1I)c1c(I)c(C(N)=O)c(I)c(C(=O)NCC(O)CO)c1I (stereo not drawn) [Beispiel 5, N,N'-Dimethyl-N,N'-bis-{5-carbamoyl-3-[N-(2,3-dihydroxypropyl)carbamoyl]-2,4,6-triiodphenyl}hydroxymalonamid] | <60 | – | – | –
15 | CN(C(=O)C(O)C(=O)N(C)c1c(I)c(C(=O)NCC(O)CO)c(I)c(C(=O)NCC(O)CO)c1I)c1c(I)c(C(N)=O)c(I)c(C(=O)NCC(O)CO)c1I (stereo not drawn) [Beispiel 7, N,N'-Dimethyl-N-{5-carbamoyl-3-[N-(2,3-dihydroxypropyl)carbamoyl]-2,4,6-triiodphenyl}-N'-{3,5-bis-[N-(2,3-dihydroxypropyl)carbamoyl]-2,4,6-triiodphenyl}hydroxymalonamid] | >60 | 170 | 8,1 mPa·s | >15
